{"source": "patent US8134032B2", "about": "“Crystalline modifications of (1R,2R)-3-(3-dimethylamino-1-ethyl-2-methyl-propyl)-phenol” (priority 2007, dated 2012)", "assay_type_in_all_cases": "physicochemical", "key": {"solubility in solvents": {"experiment": "solubility in solvents", "conditions": "in saturated hydrocarbons (n-pentane, n-hexane, n-heptane) and water", "excerpt": "Conventional organic solvents known to persons skilled in the art may be used as solvents in a solution of this type, in particular alcohols such as methanol, ethanol, 1-propanol and 2-propanol, esters such as ethyl acetate, ketones such as acetone and ethylmethyl ketone, ethers such as diethyl ether, tert-butyl methyl ether, 1,4-dioxane and tetrahydrofuran, nitriles such as acetonitrile, chlorinated hydrocarbons such as dichloromethane, aromatic hydrocarbons such as toluene, and also dimethyl formamide and dimethyl sulfoxide."}, "[1]": {"experiment": "physical stability of amorphous modification (Example 7)", "description": "Attempts were made to produce the amorphous modification of (1R,2R)-3-(3-dimethylamino-1-ethyl-2-methyl-propyl)-phenol by evaporation, lyophilization or melting.\n7.1) 150 mg (1) were dissolved in 3 ml MeOH. The solvent was removed on a rotary evaporator. A colourless oil remained. The residue was dried in a vacuum.\n7.2) 150 mg (1) were dissolved in 2 ml 1,4-dioxane. The solvent was removed by freeze-drier.\n7.3) 150 mg (1) were dissolved in 2 ml 1,4-dioxane. The solvent was removed by freeze-drier (−85° C., 0.5 mbar). A colourless residue remained and crystallized spontaneously before it was possible to perform a PXRD analysis. […] The melt was frozen with dry ice. An amorphous film was obtained which crystallized within 1 hour."}, "[2]": {"experiment": "crystallization of amorphous oily residues on storage (Example 1)", "conditions": "stored at RT or at 5° C.", "description": "Amorphous (1R,2R)-3-(3-dimethylamino-1-ethyl-2-methyl-propyl)-phenol was obtained by rapid evaporation of a solution of the compound on a rotary evaporator. The oily residues were stored at RT or at 5° C. All the samples crystallized within 24 hours."}, "[3]": {"experiment": "dynamic vapor sorption (DVS)", "conditions": "25° C.; for changes in mass (DVS): dynamic mode, 5% relative air humidity/hour; for hygroscopicity: DVS", "description": "Crystalline modifications A and B of (1R,2R)-3-(3-dimethylamino-1-ethyl-2-methyl-propyl)-phenol were each characterized by dynamic vapor sorption (DVS). The analyses were recorded in dynamic mode (5% relative air humidity/hour).\nThe DVS cycles are reversible."}, "[4]": {"experiment": "rate of dissolution in water, second determination (tablets)", "conditions": "for rate of dissolution: tablets, in water", "description": "(§1) To analyse the rate of dissolution of modifications A and B in water, two different determinations were carried out."}, "[5]": {"experiment": "mechanical stress: ball mill grinding and tablet compaction (Example 8)", "conditions": "for modification obtained after tablet compaction: IR tablet press, pressure 10 t, 30 min; for modification obtained after grinding in ball mill: shaking frequency 30 sec^-1, RT, 2x90 min, 1x60 min", "description": "The effect of mechanical stress from grinding with a ball mill (model Retsch MM200, agate vessel and agate ball with 5 mm diameter) and from pressure during the production of a tablet was analysed.\n8.1) A tablet was produced with 100 mg (1) on an IR tablet press (pressure 10 t, 30 min).\n8.4) 15 mg of the crystalline form A were ground in a ball mill (shaking frequency: 30 sec^−1, RT) as follows: 2×90 min, 1×60 min, 2×30 min discontinuation."}, "[6]": {"experiment": "rate of dissolution in water, first determination (stirred suspension)", "conditions": "particle size distribution not taken into account", "description": "as §1\nUnder these conditions, the particle size affects the result."}, "[7]": {"experiment": "relative thermodynamic stability, suspension of mixtures of modifications A and B (Example 9)", "conditions": "temperature range of 5-85° C., preferably 5-50° C.", "description": "The suspension was shaken overnight in an Eppendorf Thermomixer at RT. The obtained solid was filtered out and characterized by FT Raman spectral analysis. […] The suspension was shaken overnight in an Eppendorf Thermomixer at RT. The resulting solid was filtered out and characterized by FT Raman spectral analysis. […] The suspension was stirred for three days at 5° C. The obtained solid was filtered out and characterized by FT Raman spectral analysis. […] The suspension was stirred overnight at 50° C. […] All solid components were dissolved. After cooling to RT, small amounts of a colourless solid were precipitated. The solvent was removed in a nitrogen flow. […]"}, "[8]": {"experiment": "suspension of modification B in various solvents (Example 6)", "conditions": "2 days; for modification obtained after suspension: stirred at RT", "description": "It was possible to exclude the formation of solvates with the selected solvents.\n6.1) 200 mg (1) were suspended in 500 μl TBME. The mixture was stirred at RT for a duration of 2 days and the resulting solid was filtered out.\n6.2) 100 mg (1) were suspended in 500 μl heptane/TBME (1:1). The mixture was stirred at RT for a duration of 2 days and the resulting solid was filtered out.\n6.3) 100 mg (1) were suspended in 500 μl H2O. The mixture was stirred at RT for a duration of 2 days and the resulting solid was filtered out.\n6.4) 100 mg (1) were suspended in 500 μl IPE. The mixture was stirred at RT for a duration of 2 days and the resulting solid was filtered out.\n6.5) 100 mg (1) were suspended in 500 μl H2O/EtOH. The mixture was stirred at RT for a duration of 2 days and the resulting solid was filtered out."}}}
{"smiles": "CC[C@@H](c1cccc(O)c1)[C@@H](C)CN(C)C", "note": "[(1R,2R)-3-(3-dimethylamino-1-ethyl-2-methyl-propyl)-phenol]", "values": [{"measurement": "solubility", "setting": "solubility in solvents", "result": "only poorly soluble"}]}
{"smiles": "CC[C@@H](c1cccc(O)c1)[C@@H](C)CN(C)C", "note": "[amorphous modification, (1R,2R)-3-(3-dimethylamino-1-ethyl-2-methyl-propyl)-phenol]", "values": [{"measurement": "crystallization of amorphous samples", "setting": "[1]; amorphous samples from evaporation, lyophilization or melting", "result": "crystallized within hours"}, {"measurement": "time until amorphous film crystallized", "setting": "[1]; melted at 88-91° C., melt frozen with dry ice", "result": "≤ 1", "unit": "h"}, {"measurement": "time until amorphous oily residues crystallized", "setting": "[2]", "result": "≤ 24", "unit": "h"}]}
{"smiles": "CC[C@@H](c1cccc(O)c1)[C@@H](C)CN(C)C", "note": "[modification A, (1R,2R)-3-(3-dimethylamino-1-ethyl-2-methyl-propyl)-phenol]", "values": [{"measurement": "changes in mass (DVS)", "setting": "[3]", "result": 0.8, "unit": "%"}, {"measurement": "hygroscopicity", "setting": "[3]", "result": "not or at most slightly hygroscopic"}, {"measurement": "polymorphic conversion during dissolution determination", "setting": "[4]; tablets in water, analysed with FT Raman", "result": "converted into form B"}, {"measurement": "rate of dissolution", "setting": "[4]", "result": 0.003, "unit": "mg/min cm^2"}, {"measurement": "modification obtained after tablet compaction", "setting": "[5]", "result": "Modification A"}, {"measurement": "modification obtained after grinding in ball mill", "setting": "[5]", "result": "converted into modification B"}, {"measurement": "modification obtained after grinding in ball mill", "setting": "[5]; listed as form A", "result": "Modification B"}]}
{"smiles": "CC[C@@H](c1cccc(O)c1)[C@@H](C)CN(C)C", "note": "[modification B, (1R,2R)-3-(3-dimethylamino-1-ethyl-2-methyl-propyl)-phenol]", "values": [{"measurement": "changes in mass (DVS)", "setting": "[3]", "result": 0.3, "unit": "%"}, {"measurement": "hygroscopicity", "setting": "[3]", "result": "not or at most slightly hygroscopic"}, {"measurement": "rate of dissolution, comparison of forms", "setting": "[6]", "result": "dissolves more rapidly"}, {"measurement": "rate of dissolution", "setting": "[4]", "result": 0.003, "unit": "mg/min cm^2"}, {"measurement": "modification obtained after tablet compaction", "setting": "[5]; listed as (1)", "result": "Modification B"}, {"measurement": "modification obtained after grinding in ball mill", "setting": "[5]", "result": "Modification B"}, {"measurement": "thermodynamic stability of the form", "setting": "[7]", "result": "most thermodynamically stable form"}, {"measurement": "modification obtained after suspension", "setting": "[8]; H2O", "result": "modification B"}, {"measurement": "modification obtained after suspension", "setting": "[8]; H2O/EtOH", "result": "modification B"}, {"measurement": "modification obtained after suspension", "setting": "[8]; IPE", "result": "modification B"}, {"measurement": "modification obtained after suspension", "setting": "[8]; TBME", "result": "modification B"}, {"measurement": "modification obtained after suspension", "setting": "[8]; heptane/TBME (1:1)", "result": "modification B"}, {"measurement": "change upon suspension in various solvents", "setting": "[8]; various solvents, RT", "result": "no change"}]}
